“Also recorded” adds a separate entry of the source.
Assays:
[1] = target: T1, thrombin (cleavage of fibrinogen) (Homo sapiens, UniProt P00734); experiment: Fibrinogen turbidity assay; type: biochemical; conditions: for inhibition of thrombin-mediated fibrin clot formation, result in words: 50 nM inhibitor, 2.5 nM thrombin, 0.8 mg/mL fibrinogen, absorbance 550 nm
T1 construct: Human alpha thrombin, human factor Xa, and human fibrinogen were purchased from Haematologic Technologies Inc; purchased Haematologic Technologies Inc
Procedure: To test the kinetics of antidote reversal, 1 μL AO2 (final concentration 2 μM) was added to the reaction 10 min after fibrinogen addition. The maximum absorption over the period of assay in the absence and presence of different inhibitors were determined. The time to reach 10%, 50%, and 90% maximum absorption increase from the start point were calculated and recorded as lag time, t50, and t90, respectively, for each inhibitor to evaluate the kinetic of fibrinogen activation. Each experiment was performed in triplicates to determine the mean and standard deviation of each parameter.

whole human blood = experiment: Active clotting time (ACT)
Procedure: Active clotting time (ACT): Citrated blood (72 μL) freshly collected from heathy donors were incubated with 6 μL inhibitors reconstituted in the reaction buffer at room temperature for 3 min following addition of 2.1 μL CaCl2) (245 mM). The blood mixture was then immediately analyzed on an ACT+ cuvette (Accriva Diagnostics) using a Hemochron Jr Signature (Instrumentation Laboratory). The assay was performed with a N value of five. One-way ANOVA test was used to compare between two sets of data.

normal human plasma [2] = experiment: Thrombin time (TT) plasma coagulation assay; conditions: for effect on TT, result in words: normal human plasma
Procedure: (§1) Plasma coagulation assays: Thrombin time (TT), prothrombin time (PT), and activated partial thromboplastin time (aPTT) assays were performed in citrated normal human plasma on a hemostasis coagulation analyzer (Diagnostica Stago). For TT, 5 μL of inhibitors in the reaction buffer were mixed with 100 μL of plasma and incubated at 37° C. for 5 min. 50 μL of thrombin (6 NIH units/ml) in the reaction buffer was then added to initiate clotting. For PT, 5 μl of inhibitors in the reaction buffer were mixed with 50 μL of plasma and incubated at 37° C. for 5 min. 100 μL of TriniCLOT PT Excel S reagent was then added to initiate clotting. For aPTT, 5 μL of inhibitors in the reaction buffer were mixed with 50 μL of plasma and incubated at 37° C. for 5 min, 50 μL of TriniCLOT aPTT S reagents was then added followed by another 5 min incubation at 37° C. Finally, 50 μL of 20 mM CaCl2) was added to initiate clotting. To characterize antidote reversal of HD22-7A-DAB in the above assays, 5 μL AO2 (finial concentration 2 μM) in the reaction buffer was added after 5-min incubation between plasma and HD22-7A-DAB, followed by another 5 min of incubation before the next step. All assays are performed induplicates.

Human alpha thrombin = Human alpha thrombin (Homo sapiens, UniProt P00734); experiment: Fluorogenic activity assay (fluorescent peptidyl substrate cleavage), thrombin; conditions: for thrombin inhibition, result in words / antidote reversal of thrombin inhibition, result in words: fluorogenic substrate assay; for maximum inhibition of thrombin activity: thrombin 0.5 nM, fluorogenic substrate; for antidote reversal of thrombin inhibition, result in words: antidote oligonucleotide
Procedure: Initial velocity studies of fluorescent peptidyl substrate cleavage by thrombin were used to assess protease inhibition by the EXACT inhibitor (FIG. 1c).
(§2) Fluorogenic activity assay: All reagents were freshly reconstituted in the reaction buffer (20 mM HEPES, 150 mM NaCl, and 2 mM CaCl2), 0.02%, Tween 20, pH 7.5) before the assay. 10 μL of thrombin or factor Xa (final concentration 0.5 nM) were first incubated with 5 μL of inhibitor, inhibitor/antidote mixture, or buffer control on a 384-well opaque plate for 5 min at 28° C. 10 μL of fluorogenic substrate (final concentration 50 μM) was then added to the mixture and the time-course fluorescence (λex=352 nm, λem=470 nm) of the sample were recorded every minute for 15 min at 28° C. using a SpectraMax i3 microplate reader (Molecular Devices). The catalytic rate of the protease was quantified by the slope from linear regression of the time-dependent fluorescence intensity and normalized with the sample containing no inhibitor as 100%. Each experiment was performed in triplicates.

[3] = Plasma stability (nuclease degradation, denaturing PAGE); type: in vitro ADME; conditions: 500 nM conjugate in human plasma (10 U/mL heparin), 37° C.
Procedure: FIG. 16. End modification of aptamer for higher plasma stability. (a) 3′ modification of HD22-DAB conjugate with invdT or cholesterol modification retain high inhibition potency to thrombin in fluorogenic substrate assay. (b) End modification of HD22-7A-DAB with 3′ invdT or cholesterol prolong […] in plasma. Plasma was prepared from whole blood collected from healthy volunteers that was supplemented with 10 U/mL of heparin to prevent coagulation. 500 nM of aptamer-drug conjugate were incubated with 200 μL of the plasma at 37° C. 20 μL of plasma reaction was collected at different time point (0, 10, 30, 60, 120, 360 min) and immediately vortexed with 100 μL phosphate buffer saline, 100 μL chloroform, and 200 μL methanol to quench nucleases. A mixture of 100 μL water and 100 μL chloroform was further added to extract the nucleic acids. The mixture was vortexed and centrifuged 500 rcf×20 min, and the aqueous phase containing nucleic acids was collected, lyophilized, reconstituted in water, and analyzed on a 15% polyacrylamide gel containing 7M urea.

thrombin [4] = target: T2, thrombin (Homo sapiens, UniProt P00734); experiment: Bio-layer interferometry; type: binding; design: Human alpha thrombin, human factor Xa, and human fibrinogen were purchased from Haematologic Technologies Inc; purchased Haematologic Technologies Inc
Procedure: Bio-layer interferometry: Bio-layer inferometry was performed using Octet R8 BLI System (Sartorius). Briefly, 3.3 nM of biotinylated HD22-7A-DAB, HD22-7A-NH2, HD23-7A-DAB, and HD23-7A-NH2 were immobilized to Octet streptavidin biosensors (Sartorius). […] A 30-min dissociation was performed in buffer containing 200 nM HD22-7A-DAB. The existence of free HD22-7A-DAB in dissociation buffer prevents re-binding of thrombin and provides more accurate koff measurements.

normal human plasma [5] = experiment: Prothrombin time (PT) plasma coagulation assay; conditions: for effect on PT, result in words: normal human plasma, comparison with DAB at 500 nM
Procedure: as §1

normal human plasma [6] = experiment: Activated partial thromboplastin time (aPTT) plasma coagulation assay; conditions: for effect on aPTT, result in words: normal human plasma, comparison with DAB at 500 nM
Procedure: as §1

[7] = target: T3, thrombin (FVIII activation) (Homo sapiens, UniProt P00734); experiment: Thrombin cleavage of FVIII (SDS-PAGE); type: biochemical; conditions: 100 nM inhibitor, 1 nM thrombin, 100 nM FVIII
T3 construct: Human alpha thrombin, human factor Xa, and human fibrinogen were purchased from Haematologic Technologies Inc; purchased Haematologic Technologies Inc
Procedure: Thrombin (final concentration 1 nM) was incubated in the absence or presence of thrombin inhibitors (final concentration 100 nM) at 37° C. for 5 min following by addition of recombinant human FVIII (final concentration 100 nM). Sample were collected at 1, 2, 5, 10, 20, 30, 40, and 60 min of reaction and quenched in SDS loading buffer and heating at 95° C. for 5 min. The digestion products at different time points are then characterized on a 4-20% PAGE gel. Thrombin's activity on activating FVIII in the absence and presence of thrombin inhibitors were quantified using the time-course concentration of intact light chain under thrombin digestion determined by band intensity. The assay was performed in duplicates.

human factor Xa = target: T4, human factor Xa (Homo sapiens, UniProt P00742); experiment: Fluorogenic activity assay (fluorescent peptidyl substrate cleavage), factor Xa; type: biochemical; conditions: for IC50: factor Xa 0.5 nM, fluorogenic substrate 50 μM; for factor Xa inhibition, result in words: fluorogenic substrate assay; for antidote reversal of factor Xa inhibition by 11F7t-20A-DAB, result in words: antidote oligonucleotide
T4 construct: Human alpha thrombin, human factor Xa, and human fibrinogen were purchased from Haematologic Technologies Inc; purchased Haematologic Technologies Inc
T4 sequence (P00742 235-488 limits assumed): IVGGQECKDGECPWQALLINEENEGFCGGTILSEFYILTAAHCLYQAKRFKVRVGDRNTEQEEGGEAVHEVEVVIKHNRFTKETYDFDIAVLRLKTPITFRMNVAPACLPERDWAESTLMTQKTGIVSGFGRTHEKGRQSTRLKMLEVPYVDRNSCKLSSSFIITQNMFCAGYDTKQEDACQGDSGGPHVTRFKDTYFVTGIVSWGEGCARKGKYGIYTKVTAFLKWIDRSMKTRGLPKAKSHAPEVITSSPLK
T4 sequence (P00742 41-179 limits assumed): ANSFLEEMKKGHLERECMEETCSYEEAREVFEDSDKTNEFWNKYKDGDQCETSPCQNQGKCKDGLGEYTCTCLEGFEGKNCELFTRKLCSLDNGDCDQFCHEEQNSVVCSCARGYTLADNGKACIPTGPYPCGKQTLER
Procedure: as §2

thrombin [8] = target: T2, thrombin; conditions: cited from earlier work
factor Xa = conditions: cited from earlier work
[9] = 2 μM AO2 added at 10 min to thrombin-fibrinogen-HD22-7A-DAB (50 nM)

In the case of HD22-7A-DAB, the “inhibition of thrombin-mediated fibrin clot formation, result in words” value [1] is reported as “completely inhibited”, the “ACT compared with 5 U/mL UFH” value (whole human blood; 1 μM) is reported as “comparable to” and the “ACT compared with 5 U/mL UFH” value (whole human blood; 2 μM) is reported as “significantly higher than”. For the same compound, the “ACT (measurable range of analyzer)” value (whole human blood; 2 μM, whole blood) was greater than 999 s, the ACT (whole human blood; 1-μM concentration, whole human blood) was 624 s and the “effect on ACT, result in words” value (whole human blood; whole human blood) was “dose dependently prolonged ACT; also recorded: significantly higher than the ACTs that followed the addition of DAB, HD22, or their equimolar mixture”. The TT clotting time (normal human plasma [2]; 31 nM) was greater than 999 s, the “effect on TT at inhibitor concentration lower than the added thrombin” value (normal human plasma [2]; below 13.4 nM) was “limited effect on TT” and the “TT clotting time (measurable range of analyzer)” value (normal human plasma [2]; concentration exceeds 16 nM) was greater than 999 s. The “effect on TT, result in words” value (normal human plasma [2]) was “rivals UFH”, the “thrombin inhibition at a concentration of 1 nM” value (Human alpha thrombin; 1 nM inhibitor) was “completely inhibits thrombin activity” and the “thrombin inhibition, result in words” value (Human alpha thrombin) was “significantly higher inhibitory effect of thrombin than DAB, HD22, or their equimolar mixture”. For the same compound, the “potency higher than DAB” value (Human alpha thrombin; ratio of IC50 against thrombin) was 500 fold, the “maximum inhibition of thrombin activity” value (Human alpha thrombin) was greater than 99% and the half-life in plasma [3] was “around 1 hour”. The “koff for thrombin binding” value (thrombin [4]; dissociation in buffer with 200 nM HD22-7A-DAB) was 0.0021 s⁻¹, the “kon for thrombin binding” value (thrombin [4]; immobilized biotinylated inhibitor) was 3.9e+07 M⁻¹ s⁻¹ and the “effect on PT, result in words” value (normal human plasma [5]) was “significantly longer than the same concentration of DAB; also recorded: rivals UFH”. The “effect on aPTT, result in words” value (normal human plasma [6]) was “significantly longer than the same concentration of DAB; also recorded: weaker anticoagulant than UFH” and the “inhibition of thrombin-mediated FVIII cleavage, result in words” value [7] was “no proteolysis was observed for over one hour”.

For “11F7t-20A-APX (GAGAGCCCCAGCGAGAUAAUACUUGGCCCCGCUCUUU; 5' APX-C6H12-2'OMeA linker conjugate; modified_base 37 OTHER; Inverted dT)”, the “effect on aPTT, result in words” value (normal human plasma [6]) was “significantly higher anticoagulant activity than free aptamer, small molecule inhibitor, and their equimolar mixture” and the IC50 (human factor Xa) was 0.17 nM.

With “HD22: thrombin exosite II-binding DNA aptamer, SEQ ID NO: 1 [reference compound]” the “inhibition of thrombin-mediated fibrin clot formation, result in words” value [1] was “did not inhibit this thrombin activity”, the “effect on TT, result in words” value (normal human plasma [2]) was “minimally affected TT” and the “maximum inhibition of thrombin activity” value (Human alpha thrombin) was 30%. The “effect on PT, result in words” value (normal human plasma [5]) was “no anticoagulant effect”, the “effect on aPTT, result in words” value (normal human plasma [6]) was “no anticoagulant effect” and the Kd (thrombin [8]; read-out: KD, thrombin anion binding exosite 2) was 0.5 nM. The “inhibition of thrombin-mediated FVIII cleavage, result in words” value [7] was “showed an inhibitory effect”.

For hirudin, the Ki (thrombin [8]; read-out: inhibition constant (Ki), thrombin) is given as 0.01 nM.

In the case of “11F7t-20A-DAB (GAGAGCCCCAGCGAGAUAAUACUUGGCCCCGCUCUUU; 5' DAB-C6H12-2'OMeA linker conjugate; modified_base 37 OTHER; Inverted dT)”, the “thrombin inhibition, result in words” value (Human alpha thrombin) is reported as “no different from DAB alone”, the IC50 (human factor Xa) is reported as 0.18 nM and the “factor Xa inhibition, result in words” value (human factor Xa) is reported as “significantly higher inhibitory effect of thrombin than DAB, 11F7t, or their equimolar mixture”. The “enhancement in the IC50 for factor Xa when DAB is conjugated to 11F7t” value (human factor Xa; versus free DAB) was greater than 2500 fold.

`COc1ccc(-n2nc(C(=O)O)c3c2C(=O)N(c2ccc(N4CCCCC4=O)cc2)CC3)cc1` [APX, apixaban-COOH, reference compound] showed an IC50 (human factor Xa) of 5.5 nM.

In the case of “HD1-12A-DAB (GGTTGGTGTGGTTGG; 3' DAB conjugate via C6H12O2 linker, further chemistry not given here)”, the “thrombin inhibition, result in words” value (Human alpha thrombin) is reported as “significantly higher inhibitory effect to thrombin compared with DAB, HD1, or their equimolar mixture” and the “antidote reversal of thrombin inhibition, result in words” value (Human alpha thrombin) is reported as “efficiently reversed by specific antidotes; also recorded: efficiently reversed by an antisense oligo”.

With “AO2: antidote oligonucleotide complementary to entire HD22 aptamer and linker, SEQ ID NO: 4 (AGTCACCCCAACCTGCCCTACCACGGACTTTTTTTT; antidote oligonucleotide complementary to aptamer and linker, chemistry not given here, further chemistry not given here)” the “lag time after antidote addition” value [1, 9] was 9.8 min, the “time over which absorbance increased and saturated after antidote” value [1, 9] was 20.7 min and the “antidote reversal of HD22-7A-DAB in TT” value (normal human plasma [2]; 2 μM AO2) was “largely reversed within 5 minutes”. For the same compound, the “reduction of the potency of HD22-7A-DAB by antidote” value (Human alpha thrombin; antidote oligonucleotide added to HD22-7A-DAB, FIG. 1c) was “more than 10,000 fold”, the “antidote reversal of thrombin inhibition, result in words” value (Human alpha thrombin) was “efficiently reversed; also recorded: reduces the potency of the EXACT conjugate to an extent that is significantly lower than free DAB” and the “antidote reversal of HD22-7A-DAB in PT” value (normal human plasma [5]; 2 μM AO2) was “efficiently reversed”. For the same compound, the “antidote reversal of HD22-7A-DAB in aPTT” value (normal human plasma [6]; 2 μM AO2) was “efficiently reversed”.

For “TAP: Tick anticoagulant peptide secreted by Ornithodoros moubata, factor Xa inhibitor (YNRLCIKPRDWIDECDSNEGGERAYFRNGKGGCDSFWICPEDHTGADYYSSYRDCFNACI; UniProt P17726 1-60, looked up)”, the Ki (factor Xa; read-out: Ki, free FXa) is listed as 0.18 nM.

For “11F7t: factor Xa RNA aptamer, SEQ ID NO: 9 (GAGAGCCCCAGCGAGAUAAUACUUGGCCCCGCUCUUU; modified_base 37 OTHER; Inverted dT) [reference compound]”, the “factor Xa inhibition, result in words” value (human factor Xa) is given as “showed no inhibition” and the Kd (factor Xa; free aptamer) is given as 1.26 nM.

In the case of “AO5.4: antidote for 11F7t-20A-DAB pairing with entire linker and part of aptamer, SEQ ID NO: 11 (TATTATCTCGCTGGGGCTCTCTTTTTTTTTTTTTTTTTTTT; antidote oligonucleotide, chemistry not given here, further chemistry not given here)”, the “antidote reversal of factor Xa inhibition by 11F7t-20A-DAB, result in words” value (human factor Xa; listed as A05.4) is reported as “efficiently reversed” and the “antidote reversal of factor Xa inhibition by 11F7t-20A-DAB, result in words” value (human factor Xa; listed as AG5.4) is reported as “effectively reverses the inhibition”.

— patent publication US20260176636A1, “APTAMER-DIRECT INHIBITOR CONJUGATES AND METHODS OF USING THE SAME” (Duke University, priority 2022, published 2026)
